Measurements taken from patent US10227331B2 (priority 2015, dated 2019).

Legend:
[1] = tested on: Serratia marcescens expressing IMP-1 (CL5741); type: cell-based; conditions: with imipenem 1 μg/ml, 95% inhibition of bacterial growth; for Serratia marcescens MITC95: IMP-1 (CL5741)
In short: (§1)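 Clinical strains grown overnight on blood agar, then diluted 1:100 in 1.1× CAMHB and exposed to test compound with imipenem at 1 μg/ml. Incubation was 22–24 h at 35° C; growth was read by absorbance to find the compound concentration restoring imipenem susceptibility.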

[2] = tested on: Escherichia coli expressing NDM-1 (CLB30005, CLB30016); type: cell-based; conditions: with imipenem 1 μg/ml, 95% inhibition of bacterial growth; for Escherichia coli MITC95: NDM-1 (CLB30016)
In short: as §1

[3] = tested on: Klebsiella pneumoniae expressing VIM-1 (IHMA599644); type: cell-based; conditions: with imipenem 1 μg/ml, 95% inhibition of bacterial growth; for Klebsiella pneumoniae MITC95: VIM-1 (IHMA599644)
In short: as §1

[4] = tested on: P. aeruginosa expressing IMP-1, efflux− (MB9799); assay: Efflux: concentration of MBL inhibitor which restores susceptibility to imipenem; type: cell-based, Pseudomonas aeruginosa; conditions: imipenem at 2 μg/mL, in the presence of a class A, C, D serine β-lactamase inhibitor closely related to relebactam
From the text: (§2) The strain background is Pseudomonas aeruginosa PAO1.

NDM-1 = NDM-1 (Klebsiella pneumoniae, UniProt C7C422); assay: biochemical; type: biochemical; conditions: CCF2-FA substrate, 2 hours at 25° C; read-out: NDM-1 IC50
NDM-1, sequence (C7C422 whole entry, looked up, species assumed): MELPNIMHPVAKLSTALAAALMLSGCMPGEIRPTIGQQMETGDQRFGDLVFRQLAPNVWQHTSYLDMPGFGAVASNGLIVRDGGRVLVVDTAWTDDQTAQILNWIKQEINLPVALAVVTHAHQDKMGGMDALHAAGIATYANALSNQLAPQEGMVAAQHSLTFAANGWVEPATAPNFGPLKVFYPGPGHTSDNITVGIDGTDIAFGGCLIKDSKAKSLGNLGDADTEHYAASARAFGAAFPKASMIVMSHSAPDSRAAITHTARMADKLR
In short: (§3)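 Fluorescence assay of metallo-β-lactamase activity using CCF2-FA, a cephalosporin-linked 7-hydroxycoumarin–fluorescein substrate. Inhibitor, enzyme and substrate were incubated together for 2 hours at 25° C. IC50 came from a 4-parameter fit of inhibition versus inhibitor concentration.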

IMP-1 = IMP-1 (Serratia marcescens, UniProt P52699); assay: biochemical; type: biochemical; conditions: CCF2-FA substrate, 2 hours at 25° C; read-out: IMP-1 IC50
IMP-1, sequence (P52699 whole entry, looked up, species assumed): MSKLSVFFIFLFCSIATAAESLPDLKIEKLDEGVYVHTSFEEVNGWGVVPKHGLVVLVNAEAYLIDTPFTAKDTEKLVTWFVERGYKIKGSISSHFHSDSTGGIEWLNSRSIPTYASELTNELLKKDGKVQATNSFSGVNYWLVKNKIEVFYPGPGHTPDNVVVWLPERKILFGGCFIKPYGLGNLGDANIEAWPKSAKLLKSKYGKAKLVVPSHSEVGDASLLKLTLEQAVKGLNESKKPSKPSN
In short: as §3

VIM-1 = VIM-1 (Pseudomonas aeruginosa (strain ATCC 15692 / DSM 22644 / CIP 104116 / JCM 14847 / LMG 12228 / 1C / PRS 101 / PAO1), UniProt A0A0F7KYQ8); assay: biochemical; conditions: CCF2-FA substrate, 2 hours at 25° C
In short: as §3

[5] = tested on: P. aeruginosa expressing IMP-1, efflux+ (MB9798); type: cell-based, Pseudomonas aeruginosa; conditions: for P. aeruginosa expressing IMP-1, efflux+ (MB9798) MITC95: imipenem at 2 μg/mL, in the presence of a class A, C, D serine β-lactamase inhibitor closely related to relebactam; for Efflux ratio: ratio MITC95 PA_9798/MITC95 PA_9799
From the text: as §2

Row | Compound | Serratia marcescens MITC95 [1] | Escherichia coli MITC95 [2] | Klebsiella pneumoniae MITC95 [3] | P. aeruginosa expressing IMP-1, efflux− (MB9799) MITC95 [4] | IC50 (NDM-1) | IC50 (IMP-1) | IC50 (VIM-1) | P. aeruginosa expressing IMP-1, efflux+ (MB9798) MITC95 [5] | Efflux ratio [5] | Serratia marcescens expressing IMP-1 (CL5741) MITC95 [1] | Escherichia coli expressing NDM-1 (CLB30016) MITC95 [2] | Klebsiella pneumoniae expressing VIM-1 (IHMA599644) MITC95 [3]
1 | NCCS(=O)(=O)c1ccc(-c2ccccc2NC(=O)CN)c(-c2nn[nH]n2)c1S(N)(=O)=O [Example 340, 2-Amino-N-(4′-((2-aminoethyl)sulfonyl)-3′-sulfamoyl-2′-(2H-tetrazol-5-yl)-[1,1′-biphenyl]-2-yl)acetamide] | 3.125 µM | 1.563 µM | 3.125 µM | 3.125 µM | 24.8 nM | 107 nM | 8.16 nM | 12.5 µM | 4.00 | – | – | –
2 | Cc1ccc(-c2ccc(S(=O)(=O)C3CNC3)c(S(N)(=O)=O)c2-c2nn[nH]n2)c2sc(N)nc12 [Example 33, 3-(2-amino-4-methylbenzo[d]thiazol-7-yl)-6-(azetidin-3-ylsulfonyl)-2-(2H-tetrazol-5-yl)benzenesulfonamide] | – | – | – | 1.563 µM | 0.0239 nM | 0.296 nM | 0.12 nM | 3.125 µM | 2.00 | 1.563 µM | 1.563 µM | 3.125 µM
3 | CS(=O)(=O)c1ccc(-c2cccc3sc(N)nc23)c(-c2nn[nH]n2)c1S(N)(=O)=O [Example 239, 3-(2-aminobenzo[d]thiazol-4-yl)-6-(methylsulfonyl)-2-(2H-tetrazol-5-yl) benzenesulfonamide] | – | – | – | 1.563 µM | 0.129 nM | 0.0909 nM | 0.108 nM | 1.563 µM | 1.00 | 3.125 µM | 12.5 µM | 6.25 µM
4 | NCCS(=O)(=O)c1ccc(-c2cccc(NC(=O)CN)c2)c(-c2nn[nH]n2)c1S(N)(=O)=O [Example 333, 2-Amino-N-(4′-((2-aminoethyl)sulfonyl)-3′-sulfamoyl-2′-(2H-tetrazol-5-yl)-[1,1′-biphenyl]-3-yl)acetamide] | 1.563 µM | 0.3906 µM | 1.563 µM | 0.7813 µM | 3.44 nM | 10.3 nM | 0.312 nM | 6.25 µM | 8.00 | – | – | –
5 | NCCS(=O)(=O)c1ccc(-c2cccc3[nH]c(=O)[nH]c23)c(-c2nnn[nH]2)c1S(N)(=O)=O.O=C(O)C(F)(F)F [Example 150, 2-((4-(2-oxo-2,3-dihydro-1H-benzo[d]imidazol-4-yl)-2-sulfamoyl-3-(1H-tetrazol-5-yl)phenyl)sulfonyl)ethanaminium 2,2,2-trifluoroacetate] | – | – | – | 1.563 µM | 0.497 nM | 0.931 nM | 0.44 nM | 1.563 µM | 1.00 | 3.125 µM | 3.125 µM | 3.125 µM
6 | Nc1nc2c(-c3ccc([S+]([O-])C4CNC4)c(S(N)(=O)=O)c3-c3nn[nH]n3)cccc2[nH]1 (stereo not drawn) [Example 13, 3-(2-amino-1H-benzo[d]imidazol-4-yl)-6-(azetidin-3-ylsulfinyl)-2-(2H-tetrazol-5-yl)benzenesulfonamide] | – | – | – | 1.563 µM | 0.619 nM | 50.8 nM | 6.61 nM | 6.25 µM | 4.00 | 3.125 µM | 0.3906 µM | 1.563 µM
7 | NCCS(=O)(=O)c1ccc(-c2cnc3[nH]ccc3c2)c(-c2nnn[nH]2)c1S(N)(=O)=O.O=C(O)C(F)(F)F [Example 149, 2-((4-(1H-pyrrolo[2,3-b]pyridin-5-yl)-2-sulfamoyl-3-(1H-tetrazol-5-yl)phenyl)sulfonyl)ethanaminium 2,2,2-trifluoroacetate] | – | – | – | 0.7813 µM | 0.534 nM | 0.856 nM | 0.185 nM | 6.25 µM | 8.00 | 3.125 µM | 1.563 µM | 3.125 µM
8 | NS(=O)(=O)c1c(S(=O)(=O)C2CNC2)ccc(-c2ccc3ncccc3c2)c1-c1nnn[nH]1.O=C(O)C(F)(F)F [Example 115, 3-((4-(quinolin-6-yl)-2-sulfamoyl-3-(1H-tetrazol-5-yl)phenyl)sulfonyl)azetidin-1-ium 2,2,2-trifluoroacetate] | – | – | – | 1.563 µM | 0.236 nM | 0.793 nM | 0.276 nM | 12.5 µM | 8.00 | 3.125 µM | 3.125 µM | 3.125 µM
9 | NCCS(=O)(=O)c1ccc(-c2cccc3[nH]cnc23)c(-c2nn[nH]n2)c1S(N)(=O)=O [Example 198, 6-((2-aminoethyl)sulfonyl)-3-(1H-benzo[d]imidazol-4-yl)-2-(2H-tetrazol-5-yl)benzenesulfonamide] | – | – | – | 0.7813 µM | 0.238 nM | 0.374 nM | 0.206 nM | 0.7813 µM | 1.00 | 1.563 µM | 0.7813 µM | 1.563 µM
10 | NCCS(=O)(=O)c1ccc(-c2cnc(N)c(C(=O)N[C@H]3CCNC3)c2)c(-c2nn[nH]n2)c1S(N)(=O)=O [Example 336, (S)-2-Amino-5-(4-((2-aminoethyl)sulfonyl)-3-sulfamoyl-2-(2H-tetrazol-5-yl)phenyl)-N-(pyrrolidin-3-yl)nicotinamide] | 1.563 µM | 0.7813 µM | 3.125 µM | 1.563 µM | 6.3 nM | 9.51 nM | 3.57 nM | 12.5 µM | 8.00 | – | – | –
11 | C[C@H](N)CS(=O)(=O)c1ccc(-c2cccc3[nH]c(C(=O)O)nc23)c(-c2nn[nH]n2)c1S(N)(=O)=O [Example 294, 4-(4-((S)-2-aminopropylsulfonyl)-3-sulfamoyl-2-(2H-tetrazol-5-yl)phenyl)-1H-benzo[d]imidazole-2-carboxylic Acid] | 3.125 µM | 1.563 µM | 3.125 µM | 1.563 µM | 0.0827 nM | 0.35 nM | 0.184 nM | 1.563 µM | 1.00 | – | – | –
12 | NS(=O)(=O)c1c(S(=O)(=O)C2CNC2)ccc(-c2ccc3ncnn3c2)c1-c1nnn[nH]1.O=C(O)C(F)(F)F [Example 104, 3-((4-([1,2,4]triazolo[1,5-a]pyridin-6-yl)-2-sulfamoyl-3-(1H-tetrazol-5-yl)phenyl)sulfonyl)azetidin-1-ium 2,2,2-trifluoroacetate] | – | – | – | 1.563 µM | 2.09 nM | 3.53 nM | 0.699 nM | 12.5 µM | 8.00 | 6.25 µM | 3.125 µM | 3.125 µM
13 | NS(=O)(=O)c1c([S+]([O-])C2CNC2)ccc(-c2ccc(C3CCNCC3)cc2)c1-c1nn[nH]n1 (stereo not drawn) [Example 5, 4-(Azetidin-3-ylsulfinyl)-4′-(piperidin-4-yl)-2-(2H-tetrazol-5-yl)-[1,1′-biphenyl]-3-sulfonamide] | – | – | – | 1.563 µM | 1.98 nM | 6.88 nM | 2.02 nM | 3.125 µM | 2.00 | 3.125 µM | 3.125 µM | 3.125 µM
